In patent US10988523B2, “Modified lipidated Relaxin B chain peptides and their therapeutic use” (Sanofi, priority 2018, dated 2021):
In brackets after ≈: the same amount, converted by molar mass. Read-outs that look alike come from different tables or passages of the source. *1 amine or outer side, *2 acyl side, *3 side chain or, on linkers, in order; H or OH if unused. Where a SMILES comes first, the peptide text is derived from it. Side-chain parts run from the residue outwards. [ ]: non-standard residue; d: D form. The star is where a group is joined. PEG12 = NCCOCCOCCOCCOCCOCCOCCOCCOCCOCCOCCOCCOCCC(=O)O; γGlu = O=C(O)[C@H](CCC(=O)[*:2])N[*:1]; Stearoyl = CCCCCCCCCCCCCCCCCC(=O)*; Palmitoyl = CCCCCCCCCCCCCCCC(=O)*; αMeK = C[C@](N)(CCCCN)C(=O)O; Nle = CCCC[C@H](N)C(=O)O; AEEA = NCCOCCOCC(=O)O; Aib = CC(C)(N)C(=O)O

Experiments:
[1] = Solubility testing of peptides in buffer; format: physicochemical
RXFP1 = biological target: T1, RXFP1 (Homo sapiens, UniProt Q9HBX9); experiment: OVCAR5 cAMP assay (HTRF), RXFP1 agonist activity; format: cell-based; conditions: for Emax: OVCAR-5, maximal cAMP relative to H2-relaxin maximum (100%), read-out: EMax, OVCAR 5 cells (cAMP); for EC50: OVCAR5 cells, cAMP HTRF, read-out: EC50 (nM), OVCAR 5 cells (cAMP)
T1 construct: OVCAR5 cells expressing endogenous RXFP1; endogenous in cells; host or cells: OVCAR5 cells
T1 sequence (Q9HBX9 1-757): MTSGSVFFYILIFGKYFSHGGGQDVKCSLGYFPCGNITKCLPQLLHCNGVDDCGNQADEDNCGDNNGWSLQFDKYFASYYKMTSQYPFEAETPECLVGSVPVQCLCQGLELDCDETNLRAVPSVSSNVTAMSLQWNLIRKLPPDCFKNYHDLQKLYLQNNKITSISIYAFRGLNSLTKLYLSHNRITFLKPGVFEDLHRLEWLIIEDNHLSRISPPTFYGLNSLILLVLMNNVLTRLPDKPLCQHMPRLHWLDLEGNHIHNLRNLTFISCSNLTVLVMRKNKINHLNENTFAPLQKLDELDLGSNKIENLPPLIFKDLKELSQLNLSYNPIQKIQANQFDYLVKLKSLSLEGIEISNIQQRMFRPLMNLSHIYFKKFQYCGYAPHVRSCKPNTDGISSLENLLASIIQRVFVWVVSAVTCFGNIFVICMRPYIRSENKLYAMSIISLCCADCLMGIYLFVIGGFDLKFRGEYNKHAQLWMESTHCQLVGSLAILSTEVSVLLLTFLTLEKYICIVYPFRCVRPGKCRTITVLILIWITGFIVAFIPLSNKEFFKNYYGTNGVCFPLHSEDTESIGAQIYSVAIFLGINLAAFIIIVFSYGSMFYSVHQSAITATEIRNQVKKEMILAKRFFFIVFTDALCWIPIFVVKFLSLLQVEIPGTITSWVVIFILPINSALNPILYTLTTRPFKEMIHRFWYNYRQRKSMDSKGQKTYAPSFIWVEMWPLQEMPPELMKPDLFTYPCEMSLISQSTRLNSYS
Outline: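 cAMP accumulation readout: after 1 mM IBMX for 40 min, endogenous-RXFP1 OVCAR5 cells got rising peptide concentrations without FCS, 30 min, 37° C, then lysis with HTRF cAMP reagents. Nonlinear regression gave EC50; Emax expressed relative to H2-relaxin maximum, same occasion.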

[2] = Stability testing of peptides in human plasma or blood; format: in vitro ADME; conditions: 37° C.; for Human Plasma stability % remaining T = 0: human plasma or blood, T = 0 (reference), 5 μM
Outline: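 Peptide at 5 µM final was incubated at 37 °C in heparinized rat or human plasma or blood, sampled up to 4 h, and extracted with acetonitrile/1% TFA. HPLC peak areas relative to t0 give % remaining peptide.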

[3] = acetate buffer, pH 4.5, read-out: Solubility Acetate buffer pH 4.5
[4] = phosphate buffer, pH 7.4, read-out: Solubility phosphate buffer pH 7.4
[5] = human plasma, read-out: Human Plasma stability % remaining 1 h
[6] = human plasma, read-out: Human Plasma stability % remaining 4 h
[7] = acetate buffer 50 mM pH 4.5, target solubility 10.0 mg/ml, read-out: Solubility Acetate buffer pH 4.5
[8] = phosphate buffer 50 mM pH 7.4, target solubility 10.0 mg/ml, read-out: Solubility phosphate buffer pH 7.4
[9] = whole blood, human blood, read-out: Human stability in blood % remaining 1 h
[10] = whole blood, human blood, read-out: Human stability in blood % remaining 4 h

SMILES: CCCCCCCCCCCCCCCC(=O)N[C@@H](CCC(=O)N[C@@H](CCC(=O)N[C@@H](CCC(=O)NCCOCCOCC(=O)NCCOCCOCC(=O)NCCCC[C@H](NC(=O)[C@H](CCCCN)NC(=O)[C@H](CCCNC(=N)N)NC(=O)C(C)(C)NC(=O)[C@H](CO)NC(=O)[C@H](Cc1c[nH]c2ccccc12)NC(=O)[C@@H](NC(=O)[C@H](CO)NC(=O)[C@H](CCCC)NC(=O)CNC(=O)[C@H](CCC(=O)O)NC(=O)C(C)(C)NC(=O)C(C)(C)NC(=O)[C@@H](NC(=O)[C@H](CCC(N)=O)NC(=O)[C@H](C)NC(=O)[C@H](CCCNC(=N)N)NC(=O)[C@@H](NC(=O)[C@H](CCCCN)NC(=O)[C@H](CCC(=O)O)NC(=O)[C@H](CCCNC(=N)N)NC(=O)CNC(=O)[C@H](CCC(=O)O)NC(=O)[C@H](CC(C)C)NC(C)=O)C(C)C)[C@@H](C)CC)[C@@H](C)O)C(N)=O)C(=O)O)C(=O)O)C(=O)O [compound 58] (Ac-LEGREKVRAQI[Aib][Aib]EG[Nle]STWS[Aib]RKK([AEEA-AEEA-γGlu-γGlu-γGlu-Palmitoyl])-NH2)
- solubility [1, 3]: 5700 µg/mL (≈ 1550 µM)
- solubility [1, 4]: 5700 µg/mL (≈ 1550 µM)
- Emax (RXFP1): 83%
- Human Plasma stability % remaining T = 0 [2]: 100%
- remaining at 1 h, 5 µM [2, 5]: 100%
- remaining at 4 h, 5 µM [2, 6]: 11%

SMILES: CCCCCCCCCCCCCCCC(=O)N[C@@H](CCC(=O)N[C@@H](CCC(=O)N[C@@H](CCC(=O)N[C@@H](CCC(=O)NCCCC[C@H](NC(=O)COCCOCCNC(=O)COCCOCCNC(=O)COCCOCCNC(=O)COCCOCCNC(=O)[C@H](CCCCNC(C)=O)NC(=O)[C@H](C)NC(=O)[C@H](CCCNC(=N)N)NC(=O)[C@](C)(CCCCN)NC(=O)[C@H](CO)NC(=O)[C@H](Cc1ccccc1)NC(=O)[C@@H](NC(=O)[C@H](CO)NC(=O)[C@H](CCC(N)=O)NC(=O)CNC(=O)[C@H](CCC(=O)O)NC(=O)C(C)(C)NC(=O)C(C)(C)NC(=O)[C@@H](NC(=O)[C@H](CCCCNC(C)=O)NC(=O)[C@H](C)NC(=O)[C@H](CCCNC(=N)N)NC(=O)[C@@H](NC(=O)[C@H](CCCCN)NC(=O)[C@H](CCC(=O)O)NC(=O)[C@H](CCCNC(=N)N)NC(=O)CNC(=O)[C@H](CCC(=O)O)NC(=O)[C@H](CC(C)C)NC(C)=O)C(C)C)[C@@H](C)CC)[C@@H](C)O)C(N)=O)C(=O)O)C(=O)O)C(=O)O)C(=O)O [compound 170] (Ac-LEGREKVRAK(Ac)I[Aib][Aib]EGQSTFS[αMeK]RAK(Ac)[AEEA][AEEA][AEEA][AEEA]K([γGlu-γGlu-γGlu-γGlu-Palmitoyl])-NH2)
- solubility [1, 7]: 9800 µg/mL (≈ 2280 µM)
- solubility [1, 8]: > 10000 µg/mL
- EC50 (RXFP1): 0.01 nM
- Emax (RXFP1): 87%
- Human Plasma stability % remaining T = 0 [2]: 100%
- remaining at 1 h, 5 µM [2, 9]: 107%
- remaining at 4 h, 5 µM [2, 10]: 106%

SMILES: CCCCCCCCCCCCCCCCCC(=O)N[C@@H](CCC(=O)N[C@@H](CCC(=O)N[C@@H](CCC(=O)NCCOCCOCC(=O)NCCOCCOCC(=O)NCCOCCOCC(=O)NCCCC[C@H](NC(=O)[C@H](CCCCNC(C)=O)NC(=O)[C@H](CCCCN)NC(=O)[C@H](CCCNC(=N)N)NC(=O)C(C)(C)NC(=O)[C@H](CO)NC(=O)[C@H](Cc1c[nH]c2ccccc12)NC(=O)[C@@H](NC(=O)[C@H](CO)NC(=O)[C@H](CCCC)NC(=O)CNC(=O)[C@H](CCC(=O)O)NC(=O)C(C)(C)NC(=O)C(C)(C)NC(=O)[C@@H](NC(=O)[C@H](CCCCNC(C)=O)NC(=O)[C@H](C)NC(=O)[C@H](CCCNC(=N)N)NC(=O)[C@@H](NC(=O)[C@H](CCCCN)NC(=O)[C@H](CCC(=O)O)NC(=O)[C@H](CCCNC(=N)N)NC(=O)CNC(=O)[C@H](CCC(=O)O)NC(=O)[C@H](CC(C)C)NC(C)=O)C(C)C)[C@@H](C)CC)[C@@H](C)O)C(N)=O)C(=O)O)C(=O)O)C(=O)O [compound 81] (Ac-LEGREKVRAK(Ac)I[Aib][Aib]EG[Nle]STWS[Aib]RKK(Ac)K([AEEA-AEEA-AEEA-γGlu-γGlu-γGlu-Stearoyl])-NH2)
- solubility ([1]; acetate buffer 50 mM pH 4.5, target solubility 15.0 mg/ml, read-out: Solubility Acetate buffer pH 4.5): 11900 µg/mL (≈ 2920 µM)
- EC50 (RXFP1): 0.22 nM
- Emax (RXFP1): 84%
- Human Plasma stability % remaining T = 0 [2]: 100%
- remaining at 1 h, 5 µM [2, 5]: 111%
- remaining at 4 h, 5 µM [2, 6]: 111%

SMILES: CCCCCCCCCCCCCCCC(=O)N[C@@H](CCC(=O)N[C@@H](CCC(=O)N[C@@H](CCC(=O)N[C@@H](CCC(=O)NCCCC[C@H](NC(=O)COCCOCCNC(=O)COCCOCCNC(=O)COCCOCCNC(=O)COCCOCCNC(=O)[C@H](CCCCNC(C)=O)NC(=O)[C@H](C)NC(=O)[C@H](CCCNC(=N)N)NC(=O)[C@](C)(CCCCN)NC(=O)[C@H](CO)NC(=O)[C@H](Cc1ccccc1)NC(=O)[C@@H](NC(=O)[C@H](CO)NC(=O)[C@H](CCCC)NC(=O)CNC(=O)[C@H](CCC(=O)O)NC(=O)C(C)(C)NC(=O)C(C)(C)NC(=O)[C@@H](NC(=O)[C@H](CCCCNC(C)=O)NC(=O)[C@H](C)NC(=O)[C@H](CCCNC(=N)N)NC(=O)[C@@H](NC(=O)[C@H](CCCCN)NC(=O)[C@H](CCC(=O)O)NC(=O)[C@H](CCCNC(=N)N)NC(=O)CNC(=O)[C@H](CCC(=O)O)NC(=O)[C@H](CC(C)C)NC(C)=O)C(C)C)[C@@H](C)CC)[C@@H](C)O)C(N)=O)C(=O)O)C(=O)O)C(=O)O)C(=O)O [compound 150] (Ac-LEGREKVRAK(Ac)I[Aib][Aib]EG[Nle]STFS[αMeK]RAK(Ac)[AEEA][AEEA][AEEA][AEEA]K([γGlu-γGlu-γGlu-γGlu-Palmitoyl])-NH2)
- solubility [1, 7]: 1500 µg/mL (≈ 351 µM)
- solubility [1, 8]: > 10000 µg/mL
- EC50 (RXFP1): 0.07 nM
- Emax (RXFP1): 92%
- Human Plasma stability % remaining T = 0 [2]: 100%
- remaining at 1 h, 5 µM [2, 9]: 34%
- remaining at 4 h, 5 µM [2, 10]: 78%

SMILES: CCCCCCCCCCCCCCCCCC(=O)N[C@@H](CCC(=O)N[C@@H](CCC(=O)N[C@@H](CCC(=O)NCCCC[C@H](NC(=O)CCOCCOCCOCCOCCOCCOCCOCCOCCOCCOCCOCCOCCNC(=O)[C@H](CCCCNC(C)=O)NC(=O)[C@H](CCCCN)NC(=O)[C@H](CCCNC(=N)N)NC(=O)C(C)(C)NC(=O)[C@H](CO)NC(=O)[C@H](Cc1c[nH]c2ccccc12)NC(=O)[C@@H](NC(=O)[C@H](CO)NC(=O)[C@H](CCCC)NC(=O)CNC(=O)[C@H](CCC(=O)O)NC(=O)C(C)(C)NC(=O)C(C)(C)NC(=O)[C@@H](NC(=O)[C@H](CCCCNC(C)=O)NC(=O)[C@H](C)NC(=O)[C@H](CCCNC(=N)N)NC(=O)[C@@H](NC(=O)[C@H](CCCCN)NC(=O)[C@H](CCC(=O)O)NC(=O)[C@H](CCCNC(=N)N)NC(=O)CNC(=O)[C@H](CCC(=O)O)NC(=O)[C@H](CC(C)C)NC(C)=O)C(C)C)[C@@H](C)CC)[C@@H](C)O)C(N)=O)C(=O)O)C(=O)O)C(=O)O [compound 33] (Ac-LEGREKVRAK(Ac)I[Aib][Aib]EG[Nle]STWS[Aib]RKK(Ac)[PEG12]K([γGlu-γGlu-γGlu-Stearoyl])-NH2)
- solubility [1, 3]: 5400 µg/mL (≈ 1280 µM)
- solubility [1, 4]: 5400 µg/mL (≈ 1280 µM)
- EC50 (RXFP1): 0.61 nM
- Emax (RXFP1): 100%
- Human Plasma stability % remaining T = 0 [2]: 100%
- remaining at 1 h, 5 µM [2, 5]: 99%
- remaining at 4 h, 5 µM [2, 6]: 96%
